# Reference: patent US20070134349A1, “Methods of treating hematological malignancies” (DUKE UNIVERSITY, priority 2005, published 2007)
# Columns and labels:
# NB4 cells [1] = experiment: Differentiation markers CD11c/CD11b by flow cytometry in NB4 cells; format: cell-based; conditions: for NB4 differentiation: FIG. 10; for NB4 cell differentiation (CD11c): 21 h
# Experimental: (§1) NB4 cells were provided by Dr. Ronald Evans (Salk Institute, La Jolla, Calif.). NB4-R4 cells were provided by Dr. Wilson Miller (McGill University, Montreal, Canada). HL-60, U-937, and Kasumi-1 cells were obtained from the American Type Culture Collection (Rockville, Md.). NB4 and NB4-R4 cells were grown in RPMI medium 1640 containing 10% fetal bovine serum. U-937 cells were grown in RPMI medium 1640 containing 10 mM HEPES, 1 mM sodium pyruvate, 4.5 g/L glucose, and 10% fetal bovine serum. HL-60 cells were grown in Iscove's Modified Dulbecco's medium containing 20% fetal bovine serum. Kasumi-1 cells were grown in RPMI medium 1640 containing 10 mM HEPES, 1 mM sodium pyruvate, 4.5 g/L glucose, and 20% fetal bovine serum.
# (§2) To determine the percentage of cells that express differentiation markers, cells were washed once and resuspended in RPMI medium 1640 containing 3% fetal bovine serum. Phycoerythrin (PE)-conjugated CD11b, 5 Allophycocyanin (APC)-CD11c or control antibodies (BD Pharmingen, San Diego, Calif.) were added into cell suspension. After 30 minutes of incubation in the dark at 4° C., the cells were washed twice and resuspended in RPMI medium 1640 containing 7-amino actinomycin D (AAD) (for dead cell exclusion) and analyzed by FACScan (Becton Dickinson).
# NB4 cells [2] = experiment: Apoptosis by Annexin V binding (flow cytometry) in NB4 cells; format: cell-based
# Experimental: as §1
# (§3) To determine the percentage of cells that undergo apoptosis, after incubation with APC-CD11c antibody in the dark at 4° C., cells were washed twice with PBS and incubated at room temperature for 15 min with PE-conjugated Annexin-V (BD Pharmingen) and 7-AAD in binding buffer (10 mM HEPES, pH 7.4, 140 mM NaCI, 2.5 mM CaCl2) and analyzed by FACScan for CD11c expression and Annexin V binding. Apoptotic cells are those that stained positive for Annexin V and negative for 7-AAD.
# [3] = plasma, humans; cited from earlier work
# [4] = in humans; cited from earlier work
# C/EBPβ = experiment: Western blot of phospho-C/EBPβ (Thr-235) and C/EBPβ in NB4 cells; format: cell-based
# Experimental: (§4) Whole-cell lysates were prepared by washing the cells with PBS and resuspending them in 1 ml of lysis buffer (1× phosphate-buffered saline, 1 mM EDTA, 1.5 mg/ml of iodoacetamide, 100 μM sodium orthovanadate, 0.5% Triton X-100, 20 mM β-glycerolphosphate, 0.2 mM phenylmethylsulfonyl fluoride, and 1× complete protease inhibitor cocktail). After clarification by a 15-min centrifugation in a microcentrifuge at 4° C., the resulting supernatant was collected. 20-50 μg of protein extracts were separated on a 10% SDS-polyacrylamide gel and transferred to a nitrocellulose membrane. The membrane was blocked with 5% nonfat milk followed by incubation with antibodies. The immunocomplex was visualized by chemiluminescence.
# H3 [5] = experiment: Western blot of phospho-H3 (Ser-10) in NB4 cells; format: cell-based; conditions: for H3 phosphorylation (Ser-10): NB4 cells, 24 h
# Experimental: as §4
# ERK1/2 [6] = experiment: Western blot of phospho-ERK1/2 in NB4 cells; format: cell-based; conditions: 24 h
# Experimental: as §4
# histones H3 and H4 = experiment: Western blot of acetylated histones H3 and H4 in NB4 cells; format: cell-based; conditions: concentrations required for apoptosis, NB4 cells, 24 h
# Experimental: as §4
# U-937 cells [7] = experiment: CD11c expression by flow cytometry in U-937 cells; format: cell-based; conditions: lower concentrations, 3 days
# Experimental: as §1, §2
# U-937 cells [8] = experiment: Annexin V binding in U-937 cells; format: cell-based; conditions: higher concentrations, 3 days
# Experimental: as §1, §3
# ERK1/2 [9] = experiment: Western blot of phospho-ERK1/2 in U-937 cells; format: cell-based; conditions: higher concentrations, 18 h, total ERK1/2 unaffected
# Experimental: as §4
# H3 [10] = experiment: Western blot of acetyl-H3 and phospho-H3 in U-937 cells; format: cell-based; conditions: higher concentrations, 18 h
# Experimental: as §4
# HL-60 cells = experiment: CD11c expression by flow cytometry in HL-60 cells; format: cell-based; conditions: 48 h
# Experimental: as §1, §2
# Kasumi-1 cells = experiment: CD11c expression by flow cytometry in Kasumi-1 cells; format: cell-based; conditions: 3 days
# Experimental: as §1, §2
# RARE-TK-Luc reporter = RARE-TK-Luc reporter transient transfection in NB4 cells; format: cell-based; conditions: ATRA 1 μM, 19 h
# Experimental: Electroporation was performed using a Gene Pulser (BioRad, Hercules, Calif.) apparatus at 300 V and 960 μF capacity. […] Cells were harvested 19 h after transfection/treatment for luciferase and β-galactosidase activities.
# PML-RARα = target: T1, PML-RARα (Homo sapiens, UniProt P10276+P29590); experiment: Western blot of PML-RARα and RARα in NB4 cells; format: cell-based; conditions: 3 days
# T1 construct: PML portion (fusion partner, UniProt P29590); endogenous in cells; host or cells: NB4 cells
# T1 sequence (P29590+P10276 with tags, fused parts or gaps): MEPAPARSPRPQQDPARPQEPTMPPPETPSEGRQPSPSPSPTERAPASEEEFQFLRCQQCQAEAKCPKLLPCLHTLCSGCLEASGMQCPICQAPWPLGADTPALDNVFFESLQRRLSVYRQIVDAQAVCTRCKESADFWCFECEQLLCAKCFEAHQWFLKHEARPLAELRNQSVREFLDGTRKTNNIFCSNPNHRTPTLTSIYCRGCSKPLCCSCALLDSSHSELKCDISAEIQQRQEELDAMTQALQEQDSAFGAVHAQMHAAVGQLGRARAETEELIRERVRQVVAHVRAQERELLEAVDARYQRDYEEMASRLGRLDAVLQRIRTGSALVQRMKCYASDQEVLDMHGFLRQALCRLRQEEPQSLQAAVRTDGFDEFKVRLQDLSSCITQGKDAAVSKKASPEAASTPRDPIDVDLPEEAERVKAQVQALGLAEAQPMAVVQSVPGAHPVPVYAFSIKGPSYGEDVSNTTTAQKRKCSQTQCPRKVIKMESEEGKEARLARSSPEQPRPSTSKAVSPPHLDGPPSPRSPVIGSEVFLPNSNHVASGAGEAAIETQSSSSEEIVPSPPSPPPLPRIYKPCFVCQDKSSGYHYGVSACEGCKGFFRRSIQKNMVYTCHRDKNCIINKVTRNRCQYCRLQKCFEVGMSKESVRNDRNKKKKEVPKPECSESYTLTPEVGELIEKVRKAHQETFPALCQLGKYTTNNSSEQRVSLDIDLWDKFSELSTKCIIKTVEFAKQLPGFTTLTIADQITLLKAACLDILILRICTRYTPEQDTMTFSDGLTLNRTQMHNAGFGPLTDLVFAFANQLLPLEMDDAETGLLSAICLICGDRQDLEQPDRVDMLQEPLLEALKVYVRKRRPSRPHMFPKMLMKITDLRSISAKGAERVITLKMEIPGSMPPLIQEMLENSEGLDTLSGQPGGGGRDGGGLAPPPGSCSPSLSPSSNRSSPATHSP
# Experimental: as §4
# NB4-R4 cells = experiment: CD11c/CD11b expression by flow cytometry in ATRA-resistant NB4-R4 cells; format: cell-based; conditions: ATRA treatment, 3 days
# Experimental: as §1, §2
# [11] = p38 inhibitor treatment of NB4 cells (data not shown)
molecule,measurement,setting,value
COCCC(=O)O [3-methoxypropionic acid],NB4 differentiation,NB4 cells [1]; NB4 cells,potent inducers
"CCCC(CCC)C(=O)O [VPA, valproic acid]",percentage of NB4 cells expressing CD11c,"NB4 cells [1]; NB4 cells, FIG. 9",did not significantly increase
same,apoptosis,"NB4 cells [2]; as concentrations increase, NB4 cells, FIG. 9",potently induces apoptosis
Phenylbutyrate,half-life in vivo t1/2,[3],60 min
same,tolerability,[4],well-tolerated
"O=C(CCCCCCC(=O)Nc1ccccc1)NO [SAHA, suberoylanilide hydroxamic acid]",differentiation,"NB4 cells [1]; SAHA at lower concentrations, NB4 cells (data not shown)",facilitated differentiation
same,apoptosis,"NB4 cells [2]; SAHA at higher concentrations, NB4 cells (data not shown)",effectively induced apoptosis
N#CC(=C(/N)Sc1ccccc1N)/C(C#N)=C(\N)Sc1ccccc1N [U0126],ATRA-induced differentiation,"NB4 cells [1]; U0126 pretreatment 2 h, then ATRA 1 μM 21 h, NB4 cells",less dramatic effect
same,MAA and BA-dependent differentiation as assessed by CD11c expression,"NB4 cells [1]; U0126 pretreatment 2 h, then MAA 5 mM or BA 1 mM 21 h, NB4 cells",dramatically reduced
same,number of BA-treated cells undergoing apoptosis,NB4 cells [2],significantly increased
same,MAA- or BA-induced phosphorylation of C/EBPβ at Thr-235,"C/EBPβ; U0126 5 μM, 17 h, absolute protein level unchanged",blocks
C[S+]([O-])c1ccc(-c2nc(-c3ccncc3)c(-c3ccc(F)cc3)[nH]2)cc1 (centres unmarked) [SB203580],effect on apoptosis,NB4 cells [2]; [11],little effect
same,effect on H3 phosphorylation at Ser-10,H3 [5]; [11],little effect
CCC(=O)O [propionic acid],NB4 differentiation,NB4 cells [1]; NB4 cells,potent inducers
"CCCC(=O)O [BA, butyric acid]",differentiation (CD11c),"NB4 cells [1]; BA 0.5 mM and 1 mM, NB4 cells, 24 h",differentiation was observed
same,NB4 cell differentiation (CD11c),NB4 cells [1]; BA 1 mM,can induce NB4 cell differentiation
same,differentiation (CD11c),"NB4 cells [1]; BA 5 mM (or higher), NB4 cells, 24 h",failed to differentiate
same,NB4 differentiation,NB4 cells [1]; NB4 cells,potent inducers
same,apoptosis (Annexin V),"NB4 cells [2]; BA 1 mM, NB4 cells, 21 h",effectively induces apoptosis
same,level of phosphorylated C/EBPβ at Thr-235,C/EBPβ; 17 h,increases phosphorylation
same,phosphorylation of C/EBPβ at Thr-235,"C/EBPβ; lower concentrations, 24 h",maximal phosphorylation
same,levels of phosphorylated ERK,"ERK1/2 [6]; higher concentrations (no differentiating effects), total ERK not decreased",dramatically decreased
same,constitutive levels of phosphorylated ERK,ERK1/2 [6]; lower concentrations,did not change
same,H3 and H4 acetylation,histones H3 and H4,robust acetylation
same,H3 phosphorylation (Ser-10),H3 [5]; higher concentrations,dramatically increased
same,H3 phosphorylation (Ser-10),H3 [5]; lower concentrations,without effect
same,expression of the differentiation marker CD11c,U-937 cells [7],increasing expression
same,apoptosis (Annexin V),U-937 cells [8],inducing apoptosis
same,activity of ERK1/2 (phospho-ERK1/2),ERK1/2 [9],downregulate
same,H3 acetylation and phosphorylation,H3 [10],increase
same,differentiation as evidenced by expression of CD11c,HL-60 cells,induce differentiation
same,percentage of cells expressing CD11c,Kasumi-1 cells,increased
same,half-life in vivo t1/2,[3],6 min
same,tolerability,[4],well-tolerated
"CC1=C(/C=C/C(C)=C/C=C/C(C)=C/C(=O)O)C(C)(C)CCC1 [ATRA, all-trans-Retinoic acid]",effect on percentage of cells expressing CD11c compared with 1 nM MAA,"NB4 cells [1]; 0.1 nM ATRA, NB4 cells, 24 h",same order of magnitude
same,percentage of cells expressing CD11b,"NB4 cells [1]; ATRA 10 nM alone, NB4 cells, 24 h, from 26%",51%
same,NB4 cell differentiation (CD11c),NB4 cells [1]; ATRA 1 μM,can induce NB4 cell differentiation
same,transcription of RARE-containing reporter gene (RARE-TK-Luc),RARE-TK-Luc reporter,can activate transcription
same,expression level of PML-RARα fusion protein,PML-RARα,induced the degradation
same,"sensitivity of NB4-R4 cells versus NB4 parental line (CD11c, CD11b)",NB4-R4 cells,less sensitive
arsenic trioxide [ATO],apoptosis (Annexin V),"NB4 cells [2]; ATO 0.1 μM, 0.5 μM alone, NB4 cells, 3 days",does not induce significant amount of apoptosis
same,expression level of PML-RARα fusion protein,PML-RARα,induced the degradation
CCOCC(=O)O [ethoxyacetic acid],NB4 differentiation,NB4 cells [1]; NB4 cells,potent inducers
[Na+].[Na+].[Na+].[O]=[V]([O-])([O-])[O-] [sodium orthovanadate],apoptosis of NB4 cells in response to HDACI treatment,NB4 cells [2]; tyrosine phosphatase inhibitor treatment (data not shown),did not inhibit
